Reference: patent US5594144A, “Tropolone derivatives and pharmaceutical composition thereof for preventing and treating ischemic diseases” (The Upjohn Company, priority 1990, dated 1997)
Like-named read-outs stand apart in the source and are kept apart here.

Experiments:
[1] = test system: Brain microsomal fractions; assay: in vitro Anti-lipid peroxidation effect (TBAR production, Fe3+-ADP/NADPH); type: biochemical, rat (SD strain, male)
Protocol: 1. in vitro Anti-lipid peroxidation effect
Brain microsomal fractions were prepared from male rats of SD strain, and a portion (0.2 mg protein) was incubated at 37° C. for 15 minutes with a mixture of Fe^3+ (0.1 mM)--ADP (0.5 mM) in the presence or absence of the test compound, in final volume of 1 ml of 10 mM HEPES, 150 mM KCl, 0.2 mM NADPH, pH 7.4. After incubation, 1.5 ml of TCA-TBA-HCl reagent (16.7% trichloroacetic acid, 0.4% thiobarbituric acid, 0.278N hydrochloric acid) was added and the reaction mixture was heated in a boiling water for 15 minutes. After cooling in ice-bath, the reaction mixture was centrifuged, and the absorbance of the supernatant at 535 nm was measured. The amount of thiobarbituric acid reactive substance (TBAR) was obtained by calculation using an extinction coefficient of 1.56×10^5 […]. […] The results are shown in Table 1A for compounds of the formulas IA, IB, and IC, respectively. The compounds with highest inhibition rate have the greatest anti-lipid peroxidation effect.

[2] = test system: Mouse Cerebral Ischemia/Reperfusion; assay: in vivo Behavior test (Mouse Cerebral Ischemia/Reperfusion Test); design: species or system mouse (ICR strain, male)
Protocol: Bilateral common carotid arteries of both sides of ICR strain male mice (about 8 weeks old) were occluded for 5 minutes while lightly anesthetized, then blood was reperfuged. The test compounds were intraperitoneally administered 10 minutes before occlusion and within 3 hours after reperfusion. Since a day after reperfusion, behavior disorder was evaluated by spontaneous motor activity of exploratory behavior, traction test and passive avoidance test. That is, spontaneous motor activity was evaluated as follows. Motor activity was measured by tilting cage method for 30 minutes since immediately after a mouse was placed in a measurement cage. If the motor activity was at least more than (average of spontaneous motion of the group received solvent) +2×SD, the compound was evaluated as "active." In traction test, both fore limbs of the mouse were placed on the horizontally stretched wire. If the mouse put its hind limb within 2 seconds, the compound was estimated as "active.". In passive avoidance test, a step-through type apparatus was used, and as acquisition trial of blood reperfusion, electrical shock (about 0.5 mA, 3 seconds) was given to the mice as soon as the whole body of mice entered the black room and on the next day test trial was carried out. The mouse which stayed in a light room for at least 300 seconds was estimated as an active example. In all tests, the test compound which provided at least 50% of active animals was determined as "active." The results are shown in Table 5.

[3] = test system: porcine coronary artery; assay: in vitro Coronary vasodilation effect (PGF2α-contracted strip); type: cell-based; settings: Sus scrofa; 25% of papaverine-induced relaxation; read-out: Coronary Vasodilation (ED25 μM)
Protocol: 3. in vitro Coronary vasodilation effect
The right portion of a porcine coronary artery was isolated, and cut into 3 mm wide strip which was suspended in a organ bath filled with 20 ml of Krebs--Henseleit solution (37° C.). During the experiment the bath solution was aerated with 95% O2 +5% Co2. The change in tension was measured using an isometric transducer. After load tension was stabilized, the preparation was contracted with PGF2α (10^-6 -[…]). After the contract level had stabilized the test compound was cumulatively applied from 10^-8 to 10^-5 M. Papaverine (10^-4 M) was used to obtain maximal relaxation at the end of the experiment. The result was expressed as the percentage of papverine-induced relaxation, and the concentration of the test compound which gave 25% relaxation of papaverine-induced relaxation was defined as ED25. The compound with low ED25 value has great coronary vasodilation effect.

[4] = test system: pig right coronary artery; assay: in vitro Ca-antagonism (high K+ induced 45Ca-influx); type: cell-based; settings: Sus scrofa, K+ 75 mM
Protocol: 2. in vitro Ca-antagonism
A strip of pig right coronary artery was depolarized with high K^+ (75 mM) for 30 minutes to induce voltage dependent ^45 Ca-influx. The extracellular ^45 Ca was chelated by adding EGTA and removed by washing, then the strip was lysed at 100° C. ^45 Ca in this lysate was measured as intracellular ^45 Ca by a scintillation counter. The concentration of the test compound was 10^-7, 10^-6, 10^-5 M, and applied until depolarization by K^+ was completed. Ratio of inhibition at various concentrations of the test compounds for increasing the intracellular ^45 Ca by K^+ was determined. The compound with high inhibition ratio has strong Ca-antagonism.

[5] = test system: ventricular arrhythmia; assay: in vivo Ischemic heart/reperfusion test; settings: Rattus norvegicus, iv
Protocol: 4. in vivo Ischemic heart/reperfusion test
Experiment was carried out using rats anesthetized with pentobarbital under artificial respiration. After the forth rib was excised, heart was exposed by thoracotomy, and the thread was placed under the left coronary artery at it origin. Then, the heart was returned and a thread was passed in a tube. Compounds were applied through tail vein. After 10 minutes, the thread in the tube was pulled to occlude coronary artery. Five minutes after occlusion, the thread was loosened again for reperfusion. Then, ventricular arrhythmia was recorded on electrocardiogram (lead II), by sticking needle electrodes into a right fore-limb and a left hind-limb. Duration time of ventricular tachycardia and occurrence of ventricular fibrillation caused after reperfusion were compared between a group receiving the test compounds and a similarly treated vehicle group. If either of two parameters of the group that received the test compound became less than half of that of the group that received the vehicle, the test compound was estimated as "active".

[6] = read-out: Minimal Effective Dose (mg/kg, i.v.)

Compound	Anti-Lipid Peroxidation (% inhibition) 10 μM [1] [%]	Anti-Lipid Peroxidation (% inhibition) 50 μM [1] [%]	inhibition at 10 µM [4] [%]	further results
COc1cc(C(C)C)ccc(C2Sc3ccccc3N2Cc2ccncc2)c1=O (stereo not drawn) [Compound 6B, 2-(2'-oxo-3'-methoxy-5'-isopropyl-3',5',7'-cycloheptatrienyl)-3-(4-picolyl)benzothiazoline]	93.1	96.6	–	minimal effective dose ([2]; iv): < 1 mg/kg
CC(C)c1ccc(CN2CCN(C(c3ccccc3)c3ccc(Cl)cc3)CC2)c(=O)c(O)c1 (stereo not drawn) [Compound 1A, 7-[4-(4-chlorobenzhydryl)piperazino-1-methyl]-2-hydroxy4-isopropyl-2,4,6-cycloheptatrien-1-one]	6.7	< 21.3	44	EC25 [3]: > 10000 nM; minimal effective dose ([2]; ip, route cell empty (method: intraperitoneally)): > 10 mg/kg
COc1cc(C(C)C)ccc(CN2CCN(C(c3ccccc3)c3ccc(Cl)cc3)CC2)c1=O (stereo not drawn) [Compound 2A, 7-[4-(4-chlorobenzhydryl)piperazino-1-methyl]-4-isopropyl-2-methoxy-2,4,6-cycloheptatrien-1-one]	28.8	84.7	61	EC25 [3]: 1800 nM; minimal effective dose ([5]; value marked # (methanesulfonate per footnote of Table 5)): 0.3 mg/kg; minimal effective dose ([2]; ip, # methanesulfonate, route cell empty (method: intraperitoneally)): 3 mg/kg
COc1cc(C(C)C)ccc(C2Sc3ccccc3N2CCCN(C)C)c1=O (stereo not drawn) [Compound 12B, 2-(2'-oxo-3'-methoxy-5'-isopropyl-3',5',7'-cycloheptatrienyl)-3-[3-(N,N-dimethylamino)propyl]benzothiazoline]	89.4	–	–	minimal effective dose ([2]; ip): 1 mg/kg
COc1cc(C(C)C)ccc(C2Sc3ccccc3N2CCCN(C)CCc2ccccc2)c1=O (stereo not drawn) [Compound 10B, 2-(2'-oxo-3'-methoxy-5'-isopropyl-3',5',7'-cycloheptatrienyl)-3-[3-(N-methyl-N-phenethylamino)propyl]benzothiazoline]	93.0	94.5	–	minimal effective dose [5, 6]: < 5 mg/kg
CC(C)c1ccc(CN2CCN(C(c3ccc(F)cc3)c3ccc(F)cc3)CC2)c(=O)c(NCCc2ccccn2)c1 [Compound 11C, 7-[4-(4,4'-difluorobenzhydryl)piperazino-1-methyl]-4-isopropyl-2-[N-2-(2-pyridyl)ethylamino]-2,4,6-cycloheptatrien-1-one]	32.2	89.8	62	–
CCOC(=O)CCNc1cc(C(C)C)ccc(CN2CCN(C(c3ccc(F)cc3)c3ccc(F)cc3)CC2)c1=O [Compound 16C, ethyl 3-{N-7-[4-(4,4'-difluorobenzhydryl)piperazino-1-methyl]-4-isopropyl-1-oxo-2,4,6-cycloheptatrien-2-ylamino}propionate]	29.1	58.0	47	–
COc1cc(C(C)C)ccc(C2Sc3ccccc3N2C)c1=O (stereo not drawn) [Compound 2B, 2-(2'-oxo-3'-methoxy-5'-isopropyl-3',5',7'-cycloheptatrienyl)-3-methylbenzothiazoline]	95.5	–	–	minimal effective dose ([2]; ip): 1 mg/kg
COc1cc(C(C)C)ccc(C2Sc3ccccc3N2CCN(C)C)c1=O (stereo not drawn) [Compound 11B, 2-(2'-oxo-3'-methoxy-5'-isopropyl-3',5',7'-cycloheptatrienyl)-3-[2-(N,N-dimethylamino)ethyl]benzothiazoline]	89.3	–	–	minimal effective dose [5, 6]: < 5 mg/kg; minimal effective dose ([2]; ip): 1 mg/kg
COc1cc(C(C)C)ccc(CN2CCN(C(c3ccc(F)cc3)c3ccc(F)cc3)CC2C)c1=O (stereo not drawn) [Compound 22C, 7-[4-(4,4'-difluorobenzhydryl)-2-methylpiperazino-1-methyl]-4-isopropyl-2-methoxy-2,4,6-cycloheptatrien-1-one]	32.8	88.7	66	–
COC(=O)CNc1cc(C(C)C)ccc(CN2CCN(C(c3ccc(F)cc3)c3ccc(F)cc3)CC2)c1=O [Compound 15C, methyl 2-{N-7-[4-(4,4'-difluorobenzhydryl)piperazino-1-methyl]-4-isopropyl-1-oxo-2,4,6-cycloheptatrien-2-ylamino}acetate]	38.6	79.8	92	–
CC(C)c1ccc(CN2CCN(C(c3ccc(F)cc3)c3ccc(F)cc3)CC2)c(=O)c(N2CCNCC2)c1 [Compound 19C, 7-[4-(4,4'-difluorobenzhydryl)piperazino-1-methyl]-4-isopropyl-2-(1-piperazino)-2,4,6-cycloheptatrien-1-one]	30.1	89.1	62	–
CC(C)c1ccc(CN2CCN(C(c3ccc(F)cc3)c3ccc(F)cc3)CC2)c(=O)c(NCCN)c1 [Compound 4C, 2-(N-2-aminoethylamino)-7-[4-(4,4'-difluorobenzhydryl)piperazino-1-methyl]-4-isopropyl-2,4,6-cycloheptatrien-1-one]	45.2	92.9	54	–
COc1cc(C(C)C)ccc(CN2C(C)CN(C(c3ccc(F)cc3)c3ccc(F)cc3)CC2C)c1=O (stereo not drawn) [Compound 21C, 7-[4-(4,4'-difluorobenzhydryl)-2,6-dimethylpiperazino-1-methyl]-4-isopropyl-2-methoxy-2,4,6-cycloheptatrien-1-one]	47.8	89.9	42	–
COc1cc(C(C)C)ccc(CN2CCCN(C(c3ccc(F)cc3)c3ccc(F)cc3)CC2)c1=O [Compound 23C, 7-[4-(4,4'-difluorobenzhydryl)hexahydro-1H-1,4-diazepin-1-ylmethyl]-4-isopropyl-2-methoxy-2,4,6-cycloheptatrien-1-one]	21.6	90.7	86	–
CC(C)c1ccc(CN2CCN(C(c3ccc(F)cc3)c3ccc(F)cc3)CC2)c(=O)c(NCCO)c1 [Compound 13C, 7-[4-(4,4'-difluorobenzhydryl)piperazino-1-methyl]-2-(N-2-hydroxyethylamino)-4-isopropyl-2,4,6-cycloheptatrien-1-one]	36.9	89.5	90	–
